Experiments:
[1] = tested on: Primary T cells CD4+ naive; assay: confluency relative to DMSO, 18 h (ratio); higher = more viable
Method in brief: (§1)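 Jurkat cells and primary CD4+/CD8+ T cells, naive or activated with CD3/CD28 Dynabeads for 48 h, were treated with compound (1 nM–10 µM, log10 steps) for 18 h at 37 °C. Following transfer of 100 µl into 96-well plates with IncuCyte Cytotox Dye and alamarBlue, wells were imaged at ×10, five images per well, each hour for 3 h. Confluency, obtained with the IncuCyte Basic Analyzer from phase-contrast images, is normalised to the mean of the control wells.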

[2] = tested on: Jurkat; assay: as above
Method in brief: as §1

[3] = tested on: Primary T cells CD4+ naive; assay: metabolic activity relative to DMSO, 18 h (ratio); higher = more viable
Method in brief: (§2)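 Jurkat or primary CD4+/CD8+ T cells (naive, or activated 48 h with CD3/CD28 Dynabeads) were treated 18 h with compound at 1 nM–10 µM (log10 steps) at 37 °C, 5% CO2. Then 100 µl of suspension went into 96-well plates with alamarBlue (10% v/v final). After 3.5 h, fluorescence was read on a FluoStar Omega (excitation 544 nm, emission 584 nm). Metabolic activity is normalised to mean DMSO controls.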

[4] = tested on: Jurkat; assay: as above
Method in brief: as §2

[5] = tested on: Primary T cells CD4+ naive; assay: cytotoxicity relative to DMSO, 18 h (ratio); higher = less cell death (drugs called cytotoxic fall below 1)
Method in brief: (§3)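 Jurkat or primary CD4+/CD8+ T cells (naive, or activated 48 h with CD3/CD28 Dynabeads) were treated 18 h with compound at 1 nM–10 µM (log10 steps) at 37 °C, 5% CO2. Then 100 µl of suspension went into 96-well plates with IncuCyte Cytotox Dye (250 nM final). Cytotoxicity came from IncuCyte fluorescence imaging (×10, five images per well, hourly over 3 h). Signals were corrected for confluency, then normalised to mean DMSO controls.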

[6] = tested on: Jurkat; assay: as above
Method in brief: as §3

| Compound | confluency ([1]; 1 nM) | confluency ([1]; 10 nM) | confluency ([1]; 100 nM) | confluency ([1]; 1000 nM) | confluency ([1]; 10000 nM) | confluency ([2]; 1 nM) | confluency ([2]; 10 nM) | confluency ([2]; 100 nM) | confluency ([2]; 1000 nM) | confluency ([2]; 10000 nM) | metabolic activity ([3]; 1 nM) | metabolic activity ([3]; 10 nM) | metabolic activity ([3]; 100 nM) | metabolic activity ([3]; 1000 nM) | metabolic activity ([3]; 10000 nM) | metabolic activity ([4]; 1 nM) | metabolic activity ([4]; 10 nM) | metabolic activity ([4]; 100 nM) | metabolic activity ([4]; 1000 nM) | metabolic activity ([4]; 10000 nM) | cytotoxicity ([5]; 1 nM) | cytotoxicity ([5]; 10 nM) | cytotoxicity ([5]; 100 nM) | cytotoxicity ([5]; 1000 nM) | cytotoxicity ([5]; 10000 nM) | cytotoxicity ([6]; 1 nM) | cytotoxicity ([6]; 10 nM) | cytotoxicity ([6]; 100 nM) | cytotoxicity ([6]; 1000 nM) | cytotoxicity ([6]; 10000 nM) |
| --- | --- | --- | --- | --- | --- | --- | --- | --- | --- | --- | --- | --- | --- | --- | --- | --- | --- | --- | --- | --- | --- | --- | --- | --- | --- | --- | --- | --- | --- | --- |
| CCCCc1nc2cc(C=CC(=O)NO)ccc2n1CCN(CC)CC [Pracinostat] | 0.744 | 1.13 | 1.29 | 1.05 | 0.873 | 0.945 | 0.95 | 0.862 | 1.04 | 0.908 | 0.982 | 0.951 | 0.917 | 0.946 | 0.877 | 1.09 | 0.964 | 1.03 | 0.737 | 0.621 | 0.794 | 1.19 | 1.38 | 1.03 | 0.897 | 0.918 | 0.836 | 0.799 | 1.02 | 0.852 |
| NC(=O)C1CCCc2c1[nH]c1ccc(Cl)cc21 (stereo not given) [Selisistat] |  |  |  |  |  | 0.962 | 0.984 | 0.973 | 0.992 | 0.992 |  |  |  |  |  | 1.06 | 1.02 | 0.995 | 1.09 | 1.05 |  |  |  |  |  | 0.974 | 0.979 | 0.932 | 1.09 | 0.974 |
| Cn1cnc2c(F)c(Nc3ccc(Br)cc3Cl)c(C(=O)NOCCO)cc21 [Selumetinib] |  |  |  |  |  | 0.985 | 0.965 | 0.988 | 0.983 | 0.974 |  |  |  |  |  | 1.05 | 1.04 | 1.03 | 1.03 | 1.07 |  |  |  |  |  | 1.01 | 0.984 | 1.06 | 1.02 | 0.959 |
| c1ccc2c(CCNc3ccc(Nc4ccncc4)cc3)c[nH]c2c1 [Serdemetan] |  |  |  |  |  | 1.02 | 1.02 | 1.06 | 1.04 | 0.841 |  |  |  |  |  | 1.04 | 0.963 | 0.905 | 0.863 | 0.816 |  |  |  |  |  | 1.08 | 1.1 | 1.21 | 1.06 | 0.829 |
| CNC1CC2OC(C)(C1OC)n1c3ccccc3c3c4c(c5c6ccccc6n2c5c31)C(=O)NC4 (stereo not given) [Staurosporine] |  |  |  |  |  | 0.829 | 0.908 | 0.897 | 0.964 | 0.876 |  |  |  |  |  | 0.916 | 1.06 | 0.979 | 1.02 | 0.995 |  |  |  |  |  | 0.826 | 0.955 | 0.959 | 1.04 | 0.913 |
| CCN(CC)CCNC(=O)c1c(C)[nH]c(C=C2C(=O)Nc3ccc(F)cc32)c1C [Sunitinib] |  |  |  |  |  | 0.994 | 0.89 | 0.969 | 0.836 | 0.635 |  |  |  |  |  | 1.07 | 0.92 | 0.991 | 0.874 | 0.795 |  |  |  |  |  | 0.992 | 0.874 | 1.01 | 0.752 | 0.546 |
| Cn1cc(-c2nc(NC3CCCCC3N)c(F)c3c2C(=O)NC3)cn1 (stereo not given) [TAK-659] |  |  |  |  |  | 0.984 | 1.04 | 0.979 | 0.946 | 0.896 |  |  |  |  |  | 1.07 | 1.12 | 0.932 | 0.867 | 0.955 |  |  |  |  |  | 0.994 | 1.11 | 0.902 | 0.949 | 0.883 |
| CC(C)(CNC(=O)c1cccc(-c2noc(C(F)(F)F)n2)c1)c1coc(-c2ccccc2)n1 [TMP195] |  |  |  |  |  | 1.02 | 0.934 | 1.08 | 1.04 | 1.02 |  |  |  |  |  | 1.02 | 0.877 | 0.921 | 0.94 | 1.02 |  |  |  |  |  | 0.995 | 0.915 | 1.12 | 1.06 | 1.06 |
| O=C(NCC1(c2nc(-c3ccccc3)cs2)CCOCC1)c1cccc(-c2noc(C(F)(F)F)n2)c1 [TMP269] |  |  |  |  |  | 0.997 | 1.08 | 0.985 | 0.978 | 0.947 |  |  |  |  |  | 0.923 | 0.987 | 1.04 | 1.06 | 1.03 |  |  |  |  |  | 0.968 | 1.06 | 0.951 | 0.93 | 0.891 |
| CC(=O)Nc1ccc(C(=O)Nc2ccccc2N)cc1 [Tacedinaline] |  |  |  |  |  | 0.975 | 1.05 | 1.01 | 0.986 | 0.994 |  |  |  |  |  | 0.978 | 0.926 | 0.943 | 0.899 | 0.757 |  |  |  |  |  | 0.902 | 0.979 | 0.958 | 0.905 | 0.942 |
| Cn1ncnc1C1c2n[nH]c(=O)c3cc(F)cc(c23)NC1c1ccc(F)cc1 (stereo not given) [Talazoparib] |  |  |  |  |  | 0.992 | 1 | 0.967 | 0.939 | 0.897 |  |  |  |  |  | 1.02 | 0.958 | 1.05 | 1.07 | 1.03 |  |  |  |  |  | 0.986 | 1.01 | 0.96 | 0.97 | 0.848 |
| C=CCNC1=C2CC(C)CC(OC)C(O)C(C)C=C(C)C(OC(N)=O)C(OC)C=CC=C(C)C(=O)NC(=CC1=O)C2=O (stereo not given) [Tanespimycin] |  |  |  |  |  | 0.985 | 0.872 | 0.982 | 0.7 | 0.734 |  |  |  |  |  | 0.935 | 0.939 | 0.999 | 0.835 | 0.795 |  |  |  |  |  | 0.913 | 0.813 | 0.913 | 0.585 | 0.628 |
| COc1cccc2c1c(O)c(C(=O)N(C)c1ccc(C(F)(F)F)cc1)c(=O)n2C [Tasquinimod] |  |  |  |  |  | 0.994 | 0.999 | 0.975 | 1.02 | 1 |  |  |  |  |  | 1.06 | 0.914 | 0.979 | 1.17 | 1.12 |  |  |  |  |  | 1 | 0.998 | 0.97 | 1.2 | 1.15 |
